Like-named read-outs stand apart in the source and are kept apart here.
Experiments:
[1] = system: Leishmania mexicana MNYC/BZ/62/M379 reference strain; format: cell-based
Method: FIG. 3: A plot showing the H2 prodrug activity toward the in vitro growth of Leishmania Mexicana. To obtain a higher sensitivity in this experiment, the MNYC/BZ/62/M379 reference strain, which has a higher sensitivity to H2 than does MHOM/MX/01/Tab3, was used. The number of parasites/ml was determined at 72 hours of incubation using 100 mM of each compound in four replicates. The culture conditions were the same as described in FIG. 1.
The following is a list of Leishmania mexicana growth inhibition activity by the prodrugs compared to H2 and a control.

[2] = system: Leishmania mexicana cultures (Tab3 or M379 strain); assay: elimination of parasites in Leishmania mexicana cultures; format: cell-based; conditions: 3 μg/ml; 10^6 parasites/ml; Dulbecco's medium with 4.5 mg/mL glucose and 10% fetal bovine serum
Method: H2 (3 μg/ml) eliminates more than 90% of the parasites in Leishmania mexicana cultures (Tab3 or M379 strain) with 10^6 parasites/ml in Dulbecco's medium modified with 4.5 mg/mL glucose and 10% fetal bovine serum.

mice = assay: in vivo toxicity studies in mice; conditions: oral, parenteral, or dermal administration in mice
Text: (§1) Cytotoxicity against murine cells was not found in in vitro studies or in vivo studies using oral, parenteral, or dermal administration in mice.

[3] = system: Leishmania mexicana strain MHOM/MX/01/Tab3; assay: in vitro growth of Leishmania mexicana, parasite count in Neubauer chamber; format: cell-based
Method: FIG. 1: The biological activity of H2 toward the in vitro growth of Leishmania mexicana strain MHOM/MX/01/Tab3. A growth curve collected after 72 hours of parasite cultivation in a Neubauer chamber in the presence of the H2 is shown. The H2 concentration is shown on the horizontal axis, whereas the number of parasites/ml is shown on the vertical axis. The experiment was performed at room temperature using high-glucose Dulbecco's Modified Eagle's Medium with 10% fetal bovine serum.
FIG. 2: Photograph obtained using an inverted microscope showing the inhibition of Leishmania growth by H2. The parasite culture shown in the left image was grown under the same conditions described in FIG. 1 but with the absence of H2.
At greater than 5 μg/ml, H2 is lethal to Leishmania in less than 5 hours. The in vitro effect is apparent at 30 minutes after application. The parasite structure is modified such that it loses its characteristic form, loses refringence, becomes spherical, and is incapable of multiplying. H2 has a CL50 of 2.6 μm/ml for the Leishmania mexicana MHOM/MX/01/Tab3 strain. The mechanism of cellular damage could not be identified by means of annexin for concentrations greater than 10 μg/ml; it is thought that a necrosis process rather than apoptosis is likely involved.

[4] = system: microorganisms, parasites, and protozoa, including members of the Leishmania genus; assay: antimicrobial, antiparasitic and leishmanicide activity (general statement); format: cell-based; conditions: from 0.1 μg/ml to greater than 100 μg/ml
Method: The N^6-(ferrocenmethyl)quinazoline-2,4,6-triamine compound, which we refer to as H2, presents antimicrobial, antiparasitic, and leishmanicide activity from 0.1 μg/ml to greater than 100 μg/ml. H2 can be used in the treatment of infections caused by microorganisms, parasites, and protozoa, including members of the Leishmania genus in particular.

murine cells = assay: in vitro cytotoxicity against murine cells; format: cell-based; conditions: in vitro studies
Text: as §1

| Molecule | % of Leishmania Growth Inhibition [1] | parasites eliminated [2] | cytotoxicity in vivo (mice) | effect on parasite culture (inverted microscope, FIG. 2) ([3]; 1 μg/ml H2, conditions of FIG. 1) | time until lethal to Leishmania ([3]; H2 at greater than 5 μg/ml) | CL50 ([3]; Leishmania mexicana MHOM/MX/01/Tab3 strain) | speed of killing the total amount of parasites compared to meglumine antimoniate, metronidazole or hydroxyurea ([3]; faster than previously described compounds, at doses ten-fold lower or less) | time at which the in vitro effect is apparent after application ([3]; in vitro) | concentration at which antimicrobial, antiparasitic, and leishmanicide activity is presented [4] | % of Leishmania Growth Inhibition ([1]; 72 hours of incubation, 100 mM of each compound, four replicates, M379 strain (FIG. 3)) | cytotoxicity against murine cells (murine cells) |
| --- | --- | --- | --- | --- | --- | --- | --- | --- | --- | --- | --- |
| [Fe+2].c1cc[cH-]c1.c1ccc(NC[c-]2cccc2)cc1 [FBC, N-(ferrocenmethyl)aniline, reference compound] | 32% |  |  |  |  |  |  |  |  |  |  |
| N^6-(ferrocenmethyl)quinazoline-2,4,6-triamine [Compound H2] |  | more than 90% | not found | clear lack of growth and destruction of the parasite | less than 5 hours | 2.6 μm/ml | up to 10 fold | 30 min | ≥ 0.1 µg/mL | 100% | not found |

— patent US8664384B2, “N6-(ferrocenmethyl)quinazolin-2,4,6-triamina (H2) and the derivatives and prodrugs thereof as antileishmanial, antiprotozoal, antiparasitic and antimicrobial agents” (priority 2010, dated 2014)
